The results in this text go back to patent publication US6342511B1, “Phencyclidine derivatives, preparation method and pharmaceutical compositions containing same” (Societe de Conseils de Recherches et d'Applications …, priority 1977, dated 2002).

Holding throughout (assay type): binding
One assay addresses T1, PCP1 sites (Rattus norvegicus, UniProt P35439).
T1 construct: membrane preparations originating from anterior cerebrum homogenates of rats; from tissue; host or cells: rat anterior cerebrum (forebrain/cortex) membranes
Description: [3H]TCP displacement, cortex membranes, 1-site model. The note with it: for cortex 1 site nH: Hill number of the cortex displacement curve. Here is the method: The affinity of the compounds for their potential bond site, can be evaluated by quantifying their ability to displace a specific tritiated label of a given site. The bond experiences are carried out by competition between the molecule to be tested and the appropriate radioligand on a membrane preparation rich in sites to be studied.
For the PCP1 sites, the tritiated label used is [^3H]TCP and the tests are carried out on membrane preparations originating from anterior cerebrum homogenates of rats.

Another assay has as its target PCP3 sites. Nature of the assay: [3H]TCP displacement, cerebellum membranes, 2-site model, PCP3. The note with it: [3H]TCP 2.5 nM, rat cerebellum. The procedure:
(§1) The affinity of the compounds for their potential bond site, can be evaluated by quantifying their ability to displace a specific tritiated label of a given site. The bond experiences are carried out by competition between the molecule to be tested and the appropriate radioligand on a membrane preparation rich in sites to be studied. The concentration of the derivative tested which inhibits 50% of the bond of the radioligand to the receptor is called IC50.
(§2) For the experimental conditions and membrane preparation techniques used, reference can be made to the literature (Brain Res., 378, 133-141 (1986); Eur. J. Pharm., 81, 531-542 (1982)).
(§3) For low affinity sites, the monosite treatment used led to incoherent results. The experimental data have therefore been reprocessed using non-linear regression (Marquardt-Levenberg algorithm) with Sigma Plot software (Jandel) according to a model with two noted sites of interaction PCP2 and PCP3. This processing proves to be more suitable than a monosite treatment (Student test: p<0.05) over a set of 3 to 4 experiments for each compound tested. Over all the experiments, the two site populations are found in a relative proportion to 68.0% (±1.5) for the PCP2 sites and 31.2% (±1.5) for the PCP3 sites.
(§4) For the PCP2 and PCP3 sites, the preparation originates from rat cerebella. Not having a specific label, only [^3H]TCP can be used. A more significant concentration of tritiated ligand (2.5 nM versus 1 nM in the cortex) is used to ensure that all the PCP2 and PCP3 sites are occupied.

The next assay deals with PCP2 sites. Nature of the assay: [3H]TCP displacement, cerebellum membranes, 2-site model, PCP2. As to conditions: [3H]TCP 2.5 nM, rat cerebellum. Here is the method: as §1, §2, §3, §4
The target in the next assay is T2, PCP receptors (Rattus norvegicus, UniProt P35439).
T2 construct: membrane preparations originating from cerebral cortex of a rat; from tissue; host or cells: rat cerebral cortex membranes
Description: Percentage inhibition on PCP receptors ([3H]TCP, cerebral cortex membranes). As to conditions: compound 10 μM. Here is the method: Percentage inhibition on PCP receptors:
The tritiated label used is [^3H]TCP and the tests are carried out on membrane preparations originating from cerebral cortex of a rat (Brain Res., 378, 133-141 (1986).

The mark [1] stands for this setting: cortex 1 site IC50, [3H]TCP 1 nM, rat cortex (anterior cerebrum) membranes.
Setting [2] is: [3H]TCP 1 nM, rat cortex (anterior cerebrum) membranes, read-out: cortex 1 site IC50.
[3] abbreviates: cortex 1 site IC50, [3H]TCP 1 nM, rat cortex membranes, bound in μM.

Each structure is given as a SMILES string. Where two headings read alike, the source gives them in different places. A value given as a limit tells only on which side of the number the result lay.

By IC50 is commonly meant the point on the concentration scale where inhibition reaches its midpoint. On to `CCNC1(c2cccs2)CCCCC1` [Ex 17, N-ethyl-1-(2-thienyl)-cyclohexylamine], for which the “cortex 1 site nH” value on PCP1 sites came out at 0.77. Further, the IC50 was 0.0209 µM at PCP1 sites (setting [1]), 47.6 µM at PCP3 sites (two-site non-linear regression) and 0.055 µM on PCP2 sites (two-site non-linear regression).

As for `OCC1CCCN(C2(c3cccs3)CCCCC2)C1` (stereo not drawn) [Ex 8, N-[1-(2-thienyl)-cyclohexan-1-yl]-3-hydroxymethyl-piperidine], at PCP1 sites, the “cortex 1 site nH” value came out at 0.96. The IC50 was 0.0284 µM on PCP1 sites (setting [2]), 0.0124 µM at PCP3 sites (two-site non-linear regression) and 2.24 µM at PCP2 sites (two-site non-linear regression).

Regarding `CC1CCCN(C2(c3cccs3)CCCCC2)C1` (single isomer, unassigned) [Ex 22 (−), N-[1-(2-thienyl)-cyclohexan-1-yl]-3-methyl piperidine], the “cortex 1 site nH” value at PCP1 sites turned out to be 1.08. Also, at PCP1 sites (setting [1]), the half-maximal inhibitory concentration (IC50) stood at 0.158 µM.

Take `c1csc(C2(N3CCCCC3)CCOCC2)c1` [Ex 20, N-[4-(2-thienyl)-tetrahydro-4H-pyran-4-yl] piperidine]: the “cortex 1 site nH” value at PCP1 sites is on record as 0.98. The IC50 on PCP1 sites (setting [2]) came to 1.22 µM; on PCP3 sites (two-site non-linear regression), 0.035 µM; on PCP2 sites (two-site non-linear regression), 5.84 µM.

For the molecule `CC1CCCN(C2(c3cc4ccccc4s3)CCSCC2)C1` (racemic) [Ex 5, (±)-N-[4-(2-benzothiophenyl)-tetrahydro-4H-thiopyran-4-yl]-3-methyl-piperidine], the IC50 at PCP1 sites (setting [3]) was above 100 µM; at PCP3 sites (two-site non-linear regression), 0.581 µM; on PCP2 sites (bound in μM), above 100 µM.

Consider `CC1CSCCC1(c1cccs1)N1CCCCC1` (single isomer, unassigned) [Ex 1 (majority), N-[4-(2-thienyl)-3-methyl-tetrahydro-4H-thiopyran-4-yl] piperidine], for which the “cortex 1 site nH” value at PCP1 sites came to 0.94. The same molecule showed a concentration for half-maximal inhibition (IC50) at PCP1 sites (setting [1]) of 17.2 µM.

On to `C[C@@H]1CCCN(C2(c3cc4ccccc4s3)CCSCC2)C1` [Ex 6, R-(+)-N-[4-(2-benzothiophenyl)-tetrahydro-4H-thiopyran-4-yl]-3-methyl-piperidine], for which the IC50 on PCP1 sites (setting [3]) was above 100 µM; on PCP3 sites (two-site non-linear regression), 0.28 µM; on PCP2 sites (bound in μM), above 100 µM.

With `Cc1csc(C2(N3CCCCC3)CCSCC2)c1` [Ex 12, N-[4-(4-methyl-thiophen-2-yl)-tetrahydro-4H-thiopyran-4-yl]-piperidine], at PCP1 sites, the “cortex 1 site nH” value amounted to 0.93. Further, the IC50 on PCP1 sites (setting [2]) came to 0.0778 µM; at PCP3 sites (two-site non-linear regression) it was 0.0054 µM; on PCP2 sites (two-site non-linear regression) it was 0.772 µM.

Take `C[C@@H]1CCCN(C2(c3cccs3)CCSCC2)C1` [Ex 4, R-(+)-N-[4-(2-thienyl)-tetrahydro-4H-thiopyran-4-yl]-3-methyl-piperidine]: the “cortex 1 site nH” value on PCP1 sites is recorded as 0.84. The concentration for half-maximal inhibition (IC50) on PCP1 sites (setting [2]) came to 0.024 µM; at PCP3 sites (two-site non-linear regression) it was 2.08 µM; at PCP2 sites (two-site non-linear regression) it was 0.0532 µM.

On to `c1coc(C2(N3CCCCC3)CCCCC2)c1` [Ex 18, N-[1-(2-furyl)-cyclohexan-1-yl] piperidine], for which, at PCP1 sites, the “cortex 1 site nH” value is recorded as 0.83. Further, the half-maximal inhibitory concentration (IC50) at PCP1 sites (setting [2]) turned out to be 0.0078 µM; on PCP3 sites (two-site non-linear regression), 0.0056 µM; on PCP2 sites (two-site non-linear regression), 0.187 µM.

Take `C[C@H]1CCCN(C2(c3cc4ccccc4s3)CCSCC2)C1` [Ex 7, S-(−)-N-[4-(2-benzothiophenyl)-tetrahydro-4H-thiopyran-4-yl]-3-methyl-piperidine]: on PCP1 sites, the “cortex 1 site nH” value turned out to be 0.73. For the same molecule, the concentration for half-maximal inhibition (IC50) at PCP1 sites (setting [1]) was determined as 82.8 µM; on PCP3 sites (two-site non-linear regression) it was 0.639 µM; on PCP2 sites (two-site non-linear regression), 84 µM.

For the molecule `CC1CSCCC1(c1cccs1)N1CCCCC1` (single isomer, unassigned) [Ex 1 (minority), N-[4-(2-thienyl)-3-methyl-tetrahydro-4H-thiopyran-4-yl] piperidine], the “cortex 1 site nH” value at PCP1 sites is 0.89. For the same molecule, the figures for the IC50 at PCP1 sites (setting [1]), at PCP3 sites (two-site non-linear regression) and on PCP2 sites (two-site non-linear regression) were 0.0268 µM, 0.0176 µM and 1.35 µM, respectively.

Regarding `Cc1ccc(C2(N3CCCCC3)CCSCC2)s1` [Ex 11, N-[4-(5-methyl-thiophen-2-yl)-tetrahydro-4H-thiopyran-4-yl]-piperidine], the “cortex 1 site nH” value on PCP1 sites was 0.97. In addition, the IC50 on PCP1 sites (setting [2]) was 0.462 µM; on PCP3 sites (bound in μM), above 100 µM; at PCP2 sites (two-site non-linear regression) it was 0.532 µM.

For `c1csc(C2(N3CCCCC3)CCSCC2)c1` [Ex 19, N-[4-(2-thienyl)-tetrahydro-4H-thiopyran-4-yl] piperidine], on PCP1 sites, the “cortex 1 site nH” value stood at 1.05. For the same molecule, the values for the IC50 at PCP1 sites (setting [2]), on PCP3 sites (two-site non-linear regression) and on PCP2 sites (two-site non-linear regression) were 0.0716 µM, 0.0085 µM and 0.586 µM, respectively.

In the case of `c1csc(C2(N3CCCCC3)CCCCC2)c1` [TCP, N-(1-(2-thienyl)cyclohexyl)piperidine, reference compound], the IC50 is 3.72 µM at PCP3 sites (two-site non-linear regression) and 0.059 µM on PCP2 sites (two-site non-linear regression).

One may read the inhibition as the percentage by which the read-out fell short of the control. A lower inhibition goes with little suppression. Regarding `c1coc(C2(N3CCCCC3)CCSCC2)c1` [Ex 9, N-[4-(2-furyl)-tetrahydro-4H-thiopyran-4-yl]-piperidine], the “cortex 1 site nH” value at PCP1 sites turned out to be 0.87. Besides, the IC50 at PCP1 sites (setting [2]) stood at 0.133 µM; on PCP3 sites (two-site non-linear regression), 0.0138 µM; on PCP2 sites (two-site non-linear regression) it was 1.02 µM. Besides, the inhibition at 10 µM against PCP receptors worked out at 96%.

Regarding `c1ccc2oc(C3(N4CCCCC4)CCSCC3)cc2c1` [Ex 10, N-[4-(2-benzofuryl)-tetrahydro-4H-thiopyran-4-yl]-piperidine], the “cortex 1 site nH” value at PCP1 sites is reported as 0.9. Further, the results for the IC50 on PCP1 sites (setting [2]), on PCP3 sites (two-site non-linear regression) and at PCP2 sites (two-site non-linear regression) were 27.5 µM, 0.0591 µM and 26.6 µM, respectively. At PCP receptors, 10 µM produced 18% inhibition.

As to `CC1CCCN(C2(c3cccs3)CCCCC2)C1` (single isomer, unassigned) [Ex 22 (+), N-[1-(2-thienyl)-cyclohexan-1-yl]-3-methyl piperidine], the “cortex 1 site nH” value at PCP1 sites stood at 1.04. In addition, the results for the IC50 at PCP1 sites (setting [1]), on PCP3 sites (two-site non-linear regression) and at PCP2 sites (two-site non-linear regression) were 0.0052 µM, 0.808 µM and 0.0283 µM, respectively.

On to `CC1CCCN(C2(c3cccs3)CCSCC2)C1` (racemic) [Ex 2, (±)-N-[4-(2-thienyl)-tetrahydro-4H-thiopyran-4-yl]-3-methyl-piperidine], for which, on PCP1 sites, the “cortex 1 site nH” value worked out at 1.14. Also, the half-maximal inhibitory concentration (IC50) is 0.132 µM on PCP1 sites (setting [2]), 2.85 µM at PCP3 sites (two-site non-linear regression) and 0.265 µM at PCP2 sites (two-site non-linear regression).

Regarding `c1csc(C2(N3CCCCC3)CCCSC2)c1` (stereo not drawn) [Ex 21, N-[3-(2-thienyl)-tetrahydro-4H-thiopyran-3-yl] piperidine], the “cortex 1 site nH” value on PCP1 sites is given as 1.00. Also, the IC50 on PCP1 sites (setting [2]) was 0.0734 µM; at PCP3 sites (two-site non-linear regression), 0.008 µM; on PCP2 sites (two-site non-linear regression), 0.659 µM.

For `CC1CCCN(C2(c3cccs3)CCCCC2)C1` (racemic) [Ex 22 (±), N-[1-(2-thienyl)-cyclohexan-1-yl]-3-methyl piperidine], the “cortex 1 site nH” value at PCP1 sites came to 1.09. The IC50 at PCP1 sites (setting [1]) is 0.0055 µM; at PCP3 sites (two-site non-linear regression), 1.45 µM; on PCP2 sites (two-site non-linear regression) it was 0.0473 µM.
